{"source": "ChEMBL document CHEMBL5352452", "about": "“Design, synthesis and pharmacological evaluation of β-carboline derivatives as potential antitumor agent via targeting autophagy” (Eur J Med Chem, 2023)", "key": {"[1]": {"tested_on": "HCT-116", "assay": "Downregulation of Myc-v2 in human HCT-116 cells at 2 uM incubated for 24 hrs by RNA sequencing analysis", "type": "functional, cell-based"}, "[2]": {"tested_on": "HCT-116", "assay": "Upregulation of IFN-alpha response pathway in human HCT-116 cells at 2 uM incubated for 24 hrs by RNA sequencing analysis", "type": "functional, cell-based"}, "[3]": {"tested_on": "HCT-116", "assay": "Antiproliferative activity against human HCT-116 cells expressing ATG7-FLAG assessed as inhibition of cell growth measured after 24 hrs by CCK-8 assay", "type": "functional, cell-based", "settings": "HCT-116, 24 h"}, "[4]": {"tested_on": "KB", "assay": "Antiproliferative activity against human KB cells assessed as inhibition of cell growth measured after 48 hrs by MTT assay", "type": "functional, cell-based"}, "[5]": {"tested_on": "HCT-116", "assay": "Antiproliferative activity against human HCT-116 cells assessed as inhibition of cell growth measured after 24 hrs by CCK-8 assay", "type": "functional, cell-based", "settings": "HCT-116, 24 h"}, "[6]": {"assay": "Antiproliferative activity against human BIU-87 cells assessed as inhibition of cell growth measured after 48 hrs by MTT assay", "type": "functional, cell-based", "settings": "BIU87, 48 h"}, "[7]": {"tested_on": "HCT-116", "assay": "Induction of apoptosis in human HCT-116 cells assessed as viable cells at 1 uM incubated for 24 hrs by annexin V FITC/propidium iodide staining based flow cytometry (reference value: 83 %)", "type": "functional", "settings": "read-out: Activity"}, "[8]": {"tested_on": "HCT-116", "assay": "Induction of autophagy in human HCT-116 cells assessed as increase in LC3-II expression at 3 uM measured after 48 to 60 hrs by Western blot analysis", "type": "functional, cell-based", "settings": "time 48-60 hrs"}, "[9]": {"tested_on": "HCT-116", "assay": "Induction of apoptosis in human HCT-116 cells assessed as necrotic cells at 2 uM incubated for 24 hrs in presence of Z-VAD-FMK by annexin V FITC/propidium iodide staining based flow cytometry (reference value: 2.9 %)", "type": "functional"}, "[10]": {"tested_on": "HCT-116", "assay": "Antiproliferative activity against human HCT-116 cells assessed as inhibition of cell growth at 1 to 4 uM by CCK-8 assay", "type": "functional, cell-based", "settings": "dose 1-4 µM, time <= 7.0 day, TDE = time-dependent effect"}, "[11]": {"tested_on": "HCT-116", "assay": "Induction of morphological changes in human HCT-116 cells assessed as reduction in intercellular contact at 2 to 6 uM measured after 24 hrs by microscopic analysis", "type": "functional, cell-based", "settings": "dose 2-6 µM"}, "[12]": {"tested_on": "HCT-116", "assay": "Upregulation of hedgehog signaling pathway in human HCT-116 cells at 2 uM incubated for 24 hrs by RNA sequencing analysis", "type": "functional, cell-based"}, "[13]": {"tested_on": "HCT-116", "assay": "Upregulation of inflammatory response gene in human HCT-116 cells at 2 uM incubated for 24 hrs by RNA sequencing analysis", "type": "functional, cell-based"}, "[14]": {"tested_on": "HCT-116", "assay": "Induction of autophagy in human HCT-116 cells expressing ATG7-FLAG assessed as increase in LC3-II expression upto 4 uM measured after 24 hrs by Western blot analysis", "type": "functional, cell-based"}, "[15]": {"tested_on": "HCT-116", "assay": "Induction of apoptosis in human HCT-116 cells assessed as viable cells at 2 uM incubated for 24 hrs in presence of Z-VAD-FMK by annexin V FITC/propidium iodide staining based flow cytometry (reference value: 86.2 %)", "type": "functional", "settings": "read-out: Activity"}, "[16]": {"tested_on": "HCT-116", "assay": "Induction of apoptosis in human HCT-116 cells assessed as early apoptotic cells at 2 uM incubated for 24 hrs in presence of Z-VAD-FMK by annexin V FITC/propidium iodide staining based flow cytometry (reference value: 6.3 %)", "type": "functional"}, "[17]": {"tested_on": "HCT-116", "assay": "Induction of apoptosis in human HCT-116 cells assessed as increase in LC3-II expression upto 4 uM incubated for 24 hrs by Western blot analysis", "type": "functional, cell-based"}, "[18]": {"tested_on": "HCT-116", "assay": "Induction of autophagy in human HCT-116 cells assessed as increase in p62 expression upto 5 uM incubated for 24 hrs by Western blot analysis", "type": "functional, cell-based"}, "[19]": {"tested_on": "HCT-116", "assay": "Induction of apoptosis in human HCT-116 cells assessed as late apoptotic cells at 2 uM incubated for 24 hrs by annexin V FITC/propidium iodide staining based flow cytometry (reference value: 4.6%)", "type": "functional"}, "[20]": {"tested_on": "HCT-116", "assay": "Upregulation of bile acid metabolism pathway in human HCT-116 cells at 2 uM incubated for 24 hrs by RNA sequencing analysis", "type": "functional, cell-based"}, "[21]": {"tested_on": "HCT-116", "assay": "Antiproliferative activity against ATG5 knockout human HCT-116 cells assessed as inhibition of cell growth measured after 24 hrs by CCK-8 assay", "type": "functional, cell-based", "settings": "HCT-116, 24 h"}, "[22]": {"tested_on": "HCT-116", "assay": "Induction of apoptosis in ATG5 knockout human HCT-116 cells assessed as increase in caspase 3 expression upto 4 uM incubated for 24 hrs by Western blot analysis", "type": "functional, cell-based"}, "[23]": {"tested_on": "CT26", "assay": "Antitumor activity against […] CT26 cells xenografted in C57BL/6 mouse assessed as reduction in tumor weight at 45 mg/kg, ip administered once every two days measured after 16 days", "type": "functional", "set-up": "scale not given: the % may be the effect or the level left", "settings": "time 16 day"}, "[24]": {"tested_on": "HCT-116", "assay": "Induction of apoptosis in human HCT-116 cells assessed as early apoptotic cells at 1 uM incubated for 24 hrs by annexin V FITC/propidium iodide staining based flow cytometry (reference value: 4.7%)", "type": "functional"}, "[25]": {"tested_on": "HT-29", "assay": "Antiproliferative activity against human HT-29 cells assessed as inhibition of cell growth measured after 48 hrs by MTT assay", "type": "functional, cell-based", "settings": "HT-29, 48 h"}, "[26]": {"tested_on": "CWR22R", "assay": "Antiproliferative activity against human 22Rv1 cells assessed as inhibition of cell growth measured after 48 hrs by MTT assay", "type": "functional, cell-based", "settings": "22Rv1, 48 h"}, "[27]": {"tested_on": "HCT-116", "assay": "Induction of apoptosis in human HCT-116 cells assessed as increase in caspase 3 expression upto 5 uM incubated for 24 hrs by Western blot analysis", "type": "functional, cell-based"}, "[28]": {"tested_on": "HCT-116", "assay": "Induction of apoptosis in human HCT-116 cells assessed as increase in cleaved caspase 3 expression upto 5 uM incubated for 24 hrs by Western blot analysis", "type": "functional, cell-based"}, "[29]": {"tested_on": "HCT-116", "assay": "Induction of autophagy in human HCT-116 cells assessed as increase in p62 expression at 3 uM measured upto 36 hrs by Western blot analysis", "type": "functional, cell-based"}, "[30]": {"tested_on": "HCT-116", "assay": "Downregulation of oxidative phosphorylation gene in human HCT-116 cells at 2 uM incubated for 24 hrs by RNA sequencing analysis", "type": "functional, cell-based"}, "[31]": {"tested_on": "A-375", "assay": "Antiproliferative activity against human A-375 cells assessed as inhibition of cell growth measured after 48 hrs by MTT assay", "type": "functional, cell-based", "settings": "A-375, 48 h"}, "[32]": {"tested_on": "HCT-116", "assay": "Downregulation of Myc-v1 in human HCT-116 cells at 2 uM incubated for 24 hrs by RNA sequencing analysis", "type": "functional, cell-based"}, "[33]": {"tested_on": "HCT-116", "assay": "Induction of apoptosis in human HCT-116 cells assessed as necrotic cells at 1 uM incubated for 24 hrs in presence of Z-VAD-FMK by annexin V FITC/propidium iodide staining based flow cytometry (reference value: 2.9 %)", "type": "functional"}, "[34]": {"tested_on": "HCT-116", "assay": "Induction of apoptosis in ATG7 knockout human HCT-116 cells assessed as increase in caspase 3 expression upto 4 uM incubated for 24 hrs by Western blot analysis", "type": "functional, cell-based"}}, "note": "The source made the active and inactive calls. No cut-off for these calls is given here."}
{"smiles": "CN1CCN(Cc2cc3c4ccccc4n(CCCc4ccccc4)c3c(CN3CCN(C)CC3)n2)CC1", "values": [{"measurement": "Activity", "setting": "[1]", "value": "Active"}, {"measurement": "Activity", "setting": "[2]", "value": "Active"}, {"measurement": "IC50", "setting": "[3]", "value": 5.09, "unit": "µM"}, {"measurement": "IC50", "setting": "[4]", "value": 8.12, "unit": "µM"}, {"measurement": "IC50", "setting": "[5]", "value": 4.97, "unit": "µM"}, {"measurement": "IC50", "setting": "[6]", "value": 4.53, "unit": "µM"}, {"measurement": "viability at 1 µM", "setting": "[7]", "value": 83.3, "unit": "%"}, {"measurement": "Activity", "setting": "[8]", "value": "inactive"}, {"measurement": "Activity", "setting": "[9]", "value": 6.3, "unit": "%"}, {"measurement": "Activity", "setting": "[10]", "value": "Tde"}, {"measurement": "Activity", "setting": "[11]", "value": "Active"}, {"measurement": "Activity", "setting": "[12]", "value": "Active"}, {"measurement": "Activity", "setting": "[13]", "value": "Active"}, {"measurement": "Activity", "setting": "[14]", "value": "Active"}, {"measurement": "viability at 2 µM", "setting": "[15]", "value": 83.7, "unit": "%"}, {"measurement": "Activity", "setting": "[16]", "value": 5.4, "unit": "%"}, {"measurement": "Activity", "setting": "[17]", "value": "Active"}, {"measurement": "Activity", "setting": "[18]", "value": "Active"}, {"measurement": "Activity", "setting": "[19]", "value": 6.8, "unit": "%"}, {"measurement": "Activity", "setting": "[20]", "value": "Active"}, {"measurement": "IC50", "setting": "[21]", "value": 7.36, "unit": "µM"}, {"measurement": "Activity", "setting": "[22]", "value": "inactive"}, {"measurement": "Activity", "setting": "[23]", "value": 69.69, "unit": "%"}, {"measurement": "Activity", "setting": "[24]", "value": 5.1, "unit": "%"}, {"measurement": "IC50", "setting": "[25]", "value": 2020, "unit": "nM"}, {"measurement": "IC50", "setting": "[26]", "value": 3.86, "unit": "µM"}, {"measurement": "Activity", "setting": "[27]", "value": "inactive"}, {"measurement": "Activity", "setting": "[28]", "value": "inactive"}, {"measurement": "Activity", "setting": "[29]", "value": "Active"}, {"measurement": "Activity", "setting": "[30]", "value": "Active"}, {"measurement": "IC50", "setting": "[31]", "value": 11.5, "unit": "µM"}, {"measurement": "Activity", "setting": "[32]", "value": "Active"}, {"measurement": "Activity", "setting": "[33]", "value": 3.6, "unit": "%"}, {"measurement": "Activity", "setting": "[34]", "value": "inactive"}]}
